# Patent publication US20080021026A1, “BENZOTHIOPHENE INHIBITORS OF RHO KINASE” (priority 2006, published 2008)
# Where two headings read alike, the source gives them in different places.
# Key:
# [1] = biological target: T1, recombinant N-terminal GST-tagged human Rho kinase 2 (ROCK2, amino acids 1-552) (Homo sapiens, UniProt O75116); assay: In vitro Rho kinase assay (luciferase-based ATP consumption), ROCK2; format: biochemical
# T1 construct: ROCK2, amino acids 1-552; purchased Invitrogen Inc. PV3759
# T1 sequence (O75116 1-552): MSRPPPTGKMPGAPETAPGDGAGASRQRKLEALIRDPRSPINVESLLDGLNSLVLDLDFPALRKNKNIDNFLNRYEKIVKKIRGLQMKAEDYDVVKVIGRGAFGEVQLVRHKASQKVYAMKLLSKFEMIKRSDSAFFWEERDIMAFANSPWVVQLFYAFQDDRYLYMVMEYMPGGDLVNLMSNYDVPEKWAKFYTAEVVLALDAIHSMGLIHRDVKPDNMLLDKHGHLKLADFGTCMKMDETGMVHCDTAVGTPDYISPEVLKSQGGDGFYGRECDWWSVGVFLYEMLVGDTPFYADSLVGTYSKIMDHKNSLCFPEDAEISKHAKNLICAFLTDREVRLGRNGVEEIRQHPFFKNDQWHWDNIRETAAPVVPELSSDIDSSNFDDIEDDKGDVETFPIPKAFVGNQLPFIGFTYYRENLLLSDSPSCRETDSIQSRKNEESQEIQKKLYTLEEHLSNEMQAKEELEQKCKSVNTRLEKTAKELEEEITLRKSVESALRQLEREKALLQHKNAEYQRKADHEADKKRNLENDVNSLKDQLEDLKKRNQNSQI
# In short: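 Luciferase-based luminescence of leftover ATP after 2 h at 30 °C, where inhibition raises signal, reports activity of GST-tagged ROCK2 (aa 1-552) at 0.82 μg/ml. Conditions: S6 peptide 100 μg/ml, […], pH 7.5 Tris buffer. Results given as percent of H-1152P control activity.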
# [2] = biological target: T2, recombinant N-terminal GST-tagged human Rho kinase 1 (ROCK1, amino acids 1-535) (Homo sapiens, UniProt Q13464); assay: In vitro Rho kinase assay (luciferase-based ATP consumption), ROCK1; format: biochemical
# T2 construct: ROCK1, amino acids 1-535; purchased Invitrogen Inc. PV-3691
# T2 sequence (Q13464 1-535): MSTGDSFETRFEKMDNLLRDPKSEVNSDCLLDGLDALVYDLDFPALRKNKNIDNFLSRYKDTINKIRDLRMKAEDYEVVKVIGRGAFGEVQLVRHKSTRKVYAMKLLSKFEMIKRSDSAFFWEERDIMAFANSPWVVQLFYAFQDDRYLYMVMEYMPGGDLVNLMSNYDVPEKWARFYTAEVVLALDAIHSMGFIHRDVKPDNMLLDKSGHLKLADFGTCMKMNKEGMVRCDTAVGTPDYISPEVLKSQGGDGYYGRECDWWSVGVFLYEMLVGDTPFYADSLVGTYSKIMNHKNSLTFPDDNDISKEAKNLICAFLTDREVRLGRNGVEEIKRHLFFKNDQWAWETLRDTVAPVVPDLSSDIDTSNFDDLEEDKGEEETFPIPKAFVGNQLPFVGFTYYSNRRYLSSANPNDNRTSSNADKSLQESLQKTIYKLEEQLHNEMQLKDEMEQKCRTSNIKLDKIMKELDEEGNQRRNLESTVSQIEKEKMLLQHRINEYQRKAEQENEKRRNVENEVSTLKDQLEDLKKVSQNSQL
# In short: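 ATP depletion measured by firefly luciferase luminescence after 2 h at 30 °C, with inhibition raising signal and activity expressed relative to H-1152P. Reaction: 0.82 μg/ml recombinant GST-tagged ROCK1 (aa 1-535), S6 peptide 100 μg/ml, […], pH 7.5 Tris buffer.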
# [3] = ROCK2 IC50, recombinant GST-tagged human ROCK2, luciferase-based ATP consumption
# [4] = ROCK1 IC50, recombinant GST-tagged human ROCK1, luciferase-based ATP consumption
# [5] = recombinant GST-tagged human ROCK2, luciferase-based ATP consumption, read-out: ROCK2 IC50
# [6] = recombinant GST-tagged human ROCK1, luciferase-based ATP consumption, read-out: ROCK1 IC50
SMILES,"IC50 [1, 5] [µM]","IC50 [2, 6] [µM]","IC50 [1, 3] [µM]","IC50 [2, 4] [µM]"
"Cc1c(-c2ccnc(N)n2)sc2ccc(CNC(=O)c3ccccc3Cl)cc12 [Example 147, Cc1c(sc2ccc(CNC(═O)c3ccccc3Cl)cc12)-c4ccnc(N)n4]",,,< 5,> 5
"Cc1c(-c2ccnc(N)n2)sc2ccc(CNC(=O)c3ccccc3O)cc12 [Example 122, Cc1c(sc2ccc(CNC(═O)c3ccccc3O)cc12)-c4ccnc(N)n4]",< 5,> 5,,
"COc1ccccc1Cc1ccc2sc(-c3ccnc(N)n3)c(C)c2c1 [Example 37, 4-(5-(2-Methoxybenzyl)-3-methylbenzo[b]thiophen-2-yl)pyrimidin-2-amine]",> 5,> 5,,
"Cc1c(-c2ccnc(N)n2)sc2ccc(Cc3cccc(C(=O)O)c3)cc12 [Example 41, 3-((2-(2-Aminopyrimidin-4-yl)-3-methylbenzo[b]thiophen-5-yl)methyl)benzoic acid]",< 5,< 5,,
"Nc1nccc(-c2sc3ccccc3c2Br)n1 [Example 15, 4-(3-Bromobenzo[b]thiophen-2-yl)pyrimidin-2-amine]",< 5,< 5,,
"Cc1ccc(C(=O)NCc2ccc3sc(-c4ccnc(N)n4)c(C)c3c2)c(C)c1 [Example 131, Cc1ccc(c(C)c1)C(═O)NCc2ccc3sc(c(C)c3c2)-c4ccnc(N)n4]",< 5,< 5,,
"CCCCCc1ccc(C(=O)NCc2ccc3sc(-c4ccnc(N)n4)c(C)c3c2)cc1 [Example 251, CCCCCc1ccc(cc1)C(═O)NCc2ccc3sc(c(C)c3c2)-c4ccnc(N)n4]",> 5,< 5,,
"Cc1cc(C(=O)NCc2ccc3sc(-c4ccnc(N)n4)c(C)c3c2)ccc1Br [Example 286, Cc1cc(ccc1Br)C(═O)NCc2ccc3sc(c(C)c3c2)-c4ccnc(N)n4]",> 5,> 5,,
"Cc1c(-c2ccnc(N)n2)sc2ccc(CNC(=O)c3ccc4c(c3)OCO4)cc12 [Example 172, Cc1c(sc2ccc(CNC(═O)c3ccc4OCOc4c3)cc12)-c5ccnc(N)n5]",< 5,< 5,,
"Cc1c(-c2ccnc(N)n2)sc2ccc(Cc3cccc(C(=O)Nc4ccc(N5CCOCC5)cc4)c3)cc12 [Example 45, 3-((2-(2-Aminopyrimidin-4-yl)-3-methylbenzo[b]thiophen-5-yl)methyl)-N-(4-morpholinophenyl)benzamide]",< 5,< 5,,
"Cc1c(-c2ccnc(N)n2)sc2ccc(CNC(=O)C(Cc3ccccn3)NC(=O)OC(C)(C)C)cc12 (centres unmarked) [Example 326, Cc1c(sc2ccc(CNC(═O)[C](Cc3ccccn3)NC(═O)OC(C)(C)C)cc12)-c4ccnc(N)n4]",> 5,< 5,,
"Cc1c(-c2ccnc(N)n2)sc2ccc(CNC(=O)c3ncc[nH]3)cc12 [Example 103, Cc1c(sc2ccc(CNC(═O)c3ncc[nH]3)cc12)-c4ccnc(N)n4]",< 5,< 5,,
"Cc1c(-c2ccnc(N)n2)sc2ccc(CNC(=O)Cc3cccc(O)c3)cc12 [Example 140, Cc1c(sc2ccc(CNC(═O)Cc3cccc(O)c3)cc12)-c4ccnc(N)n4]",< 5,> 5,,
"Cc1c(-c2ccnc(N)n2)sc2ccc(CNC(=O)c3ccccc3C(=O)c3ccc(F)cc3)cc12 [Example 317, Cc1c(sc2ccc(CNC(═O)c3ccccc3C(═O)c4ccc(F)cc4)cc12)-c5ccnc(N)n5]",> 5,< 5,,
"Cc1c(-c2ccnc(N)n2)sc2ccc(Nc3cccc(NS(C)(=O)=O)c3)cc12 [Example 56, N-(3-(2-(2-Aminopyrimidin-4-yl)-3-methylbenzo[b]thiophen-5-ylamino)phenyl)methanesulfonamide]",< 5,< 5,,
"Cc1c(-c2ccc3[nH]ncc3c2)sc2ccc(Cl)cc12 [Example 10, 5-(5-Chloro-3-methylbenzo[b]thiophen-2-yl)-1H-indazole]",< 5,< 5,,
"Cc1c(-c2ccnc(N)n2)sc2ccc(CNC(=O)c3cccc(Cl)c3Cl)cc12 [Example 245, Cc1c(sc2ccc(CNC(═O)c3cccc(Cl)c3Cl)cc12)-c4ccnc(N)n4]",,,< 5,> 5
"Cc1c(-c2ccnc(N)n2)sc2ccc(Nc3cccc(NC(=O)c4ccc(C(=O)O)cc4)c3)cc12 [Example 63, 4-(3-(2-(2-Aminopyrimidin-4-yl)-3-methylbenzo[b]thiophen-5-ylamino)phenylcarbamoyl)benzoic acid]",< 5,< 5,,
"COC(=O)c1ccc(C(=O)Nc2cccc(Nc3ccc4sc(-c5ccnc(N)n5)c(C)c4c3)c2)cc1 [Example 62, Methyl 4-(3-(2-(2-aminopyrimidin-4-yl)-3-methylbenzo[b]thiophen-5-ylamino)phenylcarbamoyl)benzoate]",< 5,< 5,,
"Cc1c(-c2ccnc(N)n2)sc2ccc(CNC(=O)c3ccncc3)cc12 [Example 110, Cc1c(sc2ccc(CNC(═O)c3ccncc3)cc12)-c4ccnc(N)n4]",< 5,> 5,,
"CC(=O)NC(Cc1ccc(O)cc1)C(=O)NCc1ccc2sc(-c3ccnc(N)n3)c(C)c2c1 (centres unmarked) [Example 299, CC(═O)N[C](Cc1ccc(O)cc1)C(═O)NCc2ccc3sc(c(C)c3c2)-c4ccnc(N)n4]",> 5,> 5,,
"Cc1c(-c2ccnc(N)n2)sc2ccc(CNC(=O)c3cc([N+](=O)[O-])ccc3Cl)cc12 [Example 265, Cc1c(sc2ccc(CNC(═O)c3cc(ccc3Cl)[N+]([O−])═O)cc12)-c4ccnc(N)n4]",,,< 5,> 5
"Cc1ccc(C)c(C(=O)NCc2ccc3sc(-c4ccnc(N)n4)c(C)c3c2)c1 [Example 134, Cc1ccc(C)c(c1)C(═O)NCc2ccc3sc(c(C)c3c2)-c4ccnc(N)n4]",< 5,< 5,,

# Now from value to compound, other results behind:
"IC50 [1, 5] [µM]","IC50 [2, 6] [µM]",SMILES,"IC50 [1, 3] [µM]","IC50 [2, 4] [µM]"
> 5,> 5,"Cc1c(-c2ccnc(N)n2)sc2ccc(CNC(=O)C3CN(C(=O)OC(C)(C)C)CCN3)cc12 (centres unmarked) [Example 308, Cc1c(sc2ccc(CNC(═O)[C]3CN(CCN3)C(═O)OC(C)(C)C)cc12)-c4ccnc(N)n4]",,
> 5,< 5,"Cc1c(-c2ccnc(N)n2)sc2ccc(CNC(=O)C(Cc3ccccc3)NC(=O)OC(C)(C)C)cc12 (centres unmarked) [Example 325, Cc1c(sc2ccc(CNC(═O)[C](Cc3ccccc3)NC(═O)OC(C)(C)C)cc12)-c4ccnc(N)n4]",,
> 5,< 5,"Cc1c(-c2ccnc(N)n2)sc2ccc(C(=O)O)cc12 [Example 19, 2-(2-Aminopyrimidin-4-yl)-3-methylbenzo[b]thiophene-5-carboxylic acid]",,
< 5,> 5,"Cc1c(-c2ccnc(N)n2)sc2ccc(CNC(=O)c3cc(O)ccc3O)cc12 [Example 142, Cc1c(sc2ccc(CNC(═O)c3cc(O)ccc3O)cc12)-c4ccnc(N)n4]",,
< 5,> 5,"COc1ccc(Cl)cc1C(=O)NCc1ccc2sc(-c3ccnc(N)n3)c(C)c2c1 [Example 232, COc1ccc(Cl)cc1C(═O)NCc2ccc3sc(c(C)c3c2)-c4ccnc(N)n4]",,
< 5,< 5,"Cc1c(-c2ccnc(N)n2)oc2ccc(Br)cc12 [Example 91, 4-(5-Bromo-3-methylbenzofuran-2-yl)pyrimidin-2-amine]",,
< 5,< 5,"Cc1c(-c2ccnc(N)n2)sc2ccc(CNC(=O)CNC(=O)OC(C)(C)C)cc12 [Example 196, Cc1c(sc2ccc(CNC(═O)CNC(═O)OC(C)(C)C)cc12)-c3ccnc(N)n3]",,
< 5,< 5,"Cc1c(-c2ccnc(N)n2)sc2ccc(Nc3cccc(Oc4ccccc4)c3)cc12 [Example 53, 4-(3-Methyl-5-(3-phenoxyphenylamino)benzo[b]thiophen-2-yl)pyrimidin-2-amine]",,
> 5,> 5,"Cc1c(-c2ccnc(N)n2)sc2ccc(CNC(=O)C3CC(O)CN3C(=O)OC(C)(C)C)cc12 (centres unmarked) [Example 311, Cc1c(sc2ccc(CNC(═O)[C]3CC(O)CN3C(═O)OC(C)(C)C)cc12)-c4ccnc(N)n4]",,
< 5,> 5,"COc1cc(C(=O)NCc2ccc3sc(-c4ccnc(N)n4)c(C)c3c2)c([N+](=O)[O-])cc1OC [Example 301, COc1cc(C(═O)NCc2ccc3sc(c(C)c3c2)-c4ccnc(N)n4)c(cc1OC)[N+]([O−])═O]",,
< 5,< 5,"CCN(CC)CCNC(=O)c1cccc(Cc2ccc3sc(-c4ccnc(N)n4)c(C)c3c2)c1 [Example 47, 3-((2-(2-Aminopyrimidin-4-yl)-3-methylbenzo[b]thiophen-5-yl)methyl)-N-(2-(diethylamino)ethyl)benzamide]",,
< 5,< 5,"Cc1c(-c2ccnc(N)n2)sc2ccc(CNC(=O)Cc3ccccc3O)cc12 [Example 35, N-((2-(2-Aminopyrimidin-4-yl)-3-methylbenzo[b]thiophen-5-yl)methyl)-2-(2-hydroxyphenyl)acetamide]",,
< 5,> 5,"Cc1c(-c2ccnc(N)n2)sc2ccc(CNC(=O)c3ccc(I)cc3)cc12 [Example 319, Cc1c(sc2ccc(CNC(═O)c3ccc(I)cc3)cc12)-c4ccnc(N)n4]",,
< 5,< 5,"COc1ccc(C=CC(=O)NCc2ccc3sc(-c4ccnc(N)n4)c(C)c3c2)cc1O [Example 256, COc1ccc(C═CC(═O)NCc2ccc3sc(c(C)c3c2)-c4ccnc(N)n4)cc1O]",,
